Data from US8759104B2, “Cationic lipids” (The University Court of the University of Edinburgh, priority 2010, dated 2014).

Tested on: HeLa cells
Assay: Transfection of pEGFP-C1 reporter plasmid into HeLa cells, GFP expression by flow cytometry
Assay type: cell-based, human
Conditions: HeLa cells 48 h after transfection with reporter plasmid, flow cytometry
Experimental: The corresponding cationic lipid (1 mM in methanol) were mixed in different proportions with DOPE (10 mg/mL in chloroform) and the organic solvent removed by evaporation in an oven (37° C.) overnight. The resultant thin films were then hydrated with PBS. The solutions were vortexed (10-20 s) and incubated at ambient temperature for 20 min. Plasmid DNA or siRNA solution (0.04 mg/mL in PBS or another isotonic solution) was subsequently added and the solution vortexed (10-20 s). The lipoplexes were incubated at room temperature for 20 min before being used.
Human HeLa cells were grown in RPMI supplemented with 4 mM glutamine, 10% FCS and 100 units/ml penicillin/streptomycin (RPMI-CM) until 80% confluence. HEK293 and B16F10 cells were grown in DMEM supplemented with 4 mM glutamine, 10% FCS and 100 units/ml penicillin/streptomycin (DMEM-CM) until 80% confluence. Cells were then suspended using trypsin/EDTA and counted. 2×10^4 cells in 150 μL of media per well were seeded in 96 well plates and incubated overnight. The day afterwards, the different lipoplex formulations were added. Each experiment was performed in quadruplicate, using Effectene® Transfection Reagent (Qiagen), Lipofectamine™ 2000 (Invitrogen) and Fugene (Roche) as positive controls and untreated cells as negative controls. After two days incubation at 37° C. and 5% CO2 (the change of media after transfection was not necessary), the green fluorescent protein (GFP) expression, as a consequence of transfecting the pEGFP-C1, was evidenced using a fluorescent microscope (Leica) and measured by flow cytometry. For the flow cytometry analysis, cells were washed twice with PBS, detached with trypsin/EDTA, harvested with 2% ferum bovine serum (FBS) in PBS, centrifuged and resuspended with 2% FBS in PBS and analyzed using a BD FACSaria flow cytometer. Transfection efficiency was measured as percentage of transfected cells.
Reagents that obtained greater than 50% transfection were also analyzed against HEK293 and B16F10 cell lines. Transfection results (+ percentages of transfection between 5-25%; ++ percentages of transfection between 25-50%; N.D. not determined). MTT toxicity assay results are indicated between brackets with 100% being cell viability of untreated cells.

| SMILES | Transfection results (percentage of transfected cells), HeLa |
| --- | --- |
| CCCCCCCCCCCCCCCCCCCCCCCC(=O)NCCN(CCNC(=O)CCCCCCCCCCCCCCCCCCCCCCC)C(=O)CCC(=O)N[C@@H](CCCNC(=N)N)C(=O)N[C@@H](CCCNC(=N)N)C(=O)N[C@@H](CCCNC(=N)N)C(N)=O.O=C(O)C(F)(F)F.O=C(O)C(F)(F)F.O=C(O)C(F)(F)F [Compound A3-Sp1-L] | + (percentages of transfection between 5-25%) |
| CCCCCCCCCCCCCCCCCCCC(=O)NCCCN(CCCNC(=O)CCCCCCCCCCCCCCCCCCC)C(=O)CCC(=O)N[C@@H](CCCNC(=N)N)C(N)=O.O=C(O)C(F)(F)F [Compound A1-Sp3-A] | + (percentages of transfection between 5-25%) |
| CCCCCCCCCCCCCCCC(=O)NCCN(CCNC(=O)CCCCCCCCCCCCCCC)C(=O)/C=C\C(=O)N[C@@H](CCCNC(=N)N)C(N)=O.O=C(O)C(F)(F)F [Compound A1-Sp2-P] | ++ (percentages of transfection between 25-50%) |
| CCCCCCCCCCCCCCCCCC(=O)NCCN(CCNC(=O)CCCCCCCCCCCCCCCCC)C(=O)/C=C\C(=O)N[C@@H](CCCNC(=N)N)C(=O)N[C@@H](CCCNC(=N)N)C(=O)N[C@@H](CCCNC(=N)N)C(N)=O.O=C(O)C(F)(F)F.O=C(O)C(F)(F)F.O=C(O)C(F)(F)F [Compound A3-Sp2-S] | ++ (percentages of transfection between 25-50%) |
| CCCCCCCCCCCCCCCC(=O)NCCCN(CCCNC(=O)CCCCCCCCCCCCCCC)C(=O)CCC(=O)N[C@@H](CCCNC(=N)N)C(N)=O.O=C(O)C(F)(F)F [Compound A1-Sp3-P] | + (percentages of transfection between 5-25%) |
| CCCCCCCCCCCCCCCCCCCC(=O)NCCN(CCNC(=O)CCCCCCCCCCCCCCCCCCC)C(=O)/C=C\C(=O)N[C@@H](CCCNC(=N)N)C(=O)N[C@@H](CCCNC(=N)N)C(N)=O.O=C(O)C(F)(F)F.O=C(O)C(F)(F)F [Compound A2-Sp2-A] | ++ (percentages of transfection between 25-50%) |
| CCCCCCCCCCCCCCCCCC(=O)NCCCN(CCCNC(=O)CCCCCCCCCCCCCCCCC)C(=O)/C=C\C(=O)N[C@@H](CCCNC(=N)N)C(=O)N[C@@H](CCCNC(=N)N)C(=O)N[C@@H](CCCNC(=N)N)C(N)=O.O=C(O)C(F)(F)F.O=C(O)C(F)(F)F.O=C(O)C(F)(F)F [Compound A3-Sp4-S] | + (percentages of transfection between 5-25%) |
| CCCCCCCCCCCCCCCC(=O)NCCCN(CCCNC(=O)CCCCCCCCCCCCCCC)C(=O)/C=C\C(=O)N[C@@H](CCCNC(=N)N)C(N)=O.O=C(O)C(F)(F)F [Compound A1-Sp4-P] | + (percentages of transfection between 5-25%) |
| CCCCCCCCCCCCCCCCCCCCCCCC(=O)NCCN(CCNC(=O)CCCCCCCCCCCCCCCCCCCCCCC)C(=O)/C=C\C(=O)N[C@@H](CCCNC(=N)N)C(=O)N[C@@H](CCCNC(=N)N)C(N)=O.O=C(O)C(F)(F)F.O=C(O)C(F)(F)F [Compound A2-Sp2-L] | + (percentages of transfection between 5-25%) |
| CCCCCCCC/C=C\CCCCCCCC(=O)NCCCN(CCCNC(=O)CCCCCCC/C=C\CCCCCCCC)C(=O)CCC(=O)N[C@@H](CCCNC(=N)N)C(N)=O.O=C(O)C(F)(F)F [Compound A1-Sp3-O] | ++ (percentages of transfection between 25-50%) |
| CCCCCCCCCCCCCCCCCCCCCCCC(=O)NCCN(CCNC(=O)CCCCCCCCCCCCCCCCCCCCCCC)C(=O)CCC(=O)N[C@@H](CCCNC(=N)N)C(N)=O.O=C(O)C(F)(F)F [Compound A1-Sp1-L] | + (percentages of transfection between 5-25%) |
| CCCCCCCCCCCCCCCCCCCC(=O)NCCCN(CCCNC(=O)CCCCCCCCCCCCCCCCCCC)C(=O)/C=C\C(=O)N[C@@H](CCCNC(=N)N)C(=O)N[C@@H](CCCNC(=N)N)C(=O)N[C@@H](CCCNC(=N)N)C(N)=O.O=C(O)C(F)(F)F.O=C(O)C(F)(F)F.O=C(O)C(F)(F)F [Compound A3-Sp4-A] | + (percentages of transfection between 5-25%) |
| CCCCCCCC/C=C\CCCCCCCC(=O)NCCN(CCNC(=O)CCCCCCC/C=C\CCCCCCCC)C(=O)CCC(=O)N[C@@H](CCCNC(=N)N)C(N)=O.O=C(O)C(F)(F)F [Compound A1-Sp1-O] | + (percentages of transfection between 5-25%) |
| CCCCCCCCCCCCCCCCCC(=O)NCCCN(CCCNC(=O)CCCCCCCCCCCCCCCCC)C(=O)CCC(=O)N[C@@H](CCCNC(=N)N)C(=O)N[C@@H](CCCNC(=N)N)C(N)=O.O=C(O)C(F)(F)F.O=C(O)C(F)(F)F [Compound A2-Sp3-S] | + (percentages of transfection between 5-25%) |
| CCCCCCCCCCCCCCCCCCCC(=O)NCCCN(CCCNC(=O)CCCCCCCCCCCCCCCCCCC)C(=O)CCC(=O)N[C@@H](CCCNC(=N)N)C(=O)N[C@@H](CCCNC(=N)N)C(=O)N[C@@H](CCCNC(=N)N)C(N)=O.O=C(O)C(F)(F)F.O=C(O)C(F)(F)F.O=C(O)C(F)(F)F [Compound A3-Sp3-A] | + (percentages of transfection between 5-25%) |
| CCCCCCCCCCCCCCCCCCCCCCCC(=O)NCCCN(CCCNC(=O)CCCCCCCCCCCCCCCCCCCCCCC)C(=O)CCC(=O)N[C@@H](CCCNC(=N)N)C(=O)N[C@@H](CCCNC(=N)N)C(=O)N[C@@H](CCCNC(=N)N)C(N)=O.O=C(O)C(F)(F)F.O=C(O)C(F)(F)F.O=C(O)C(F)(F)F [Compound A3-Sp3-L] | + (percentages of transfection between 5-25%) |
| CCCCCCCCCCCCCCCCCC(=O)NCCCN(CCCNC(=O)CCCCCCCCCCCCCCCCC)C(=O)CCC(=O)N[C@@H](CCCNC(=N)N)C(N)=O.O=C(O)C(F)(F)F [Compound A1-Sp3-S] | + (percentages of transfection between 5-25%) |
| CCCCCCCC/C=C\CCCCCCCC(=O)NCCN(CCNC(=O)CCCCCCC/C=C\CCCCCCCC)C(=O)/C=C\C(=O)N[C@@H](CCCNC(=N)N)C(N)=O.O=C(O)C(F)(F)F [Compound A1-Sp2-O] | + (percentages of transfection between 5-25%) |
| CCCCCCCCCCCCCCCCCC(=O)NCCCN(CCCNC(=O)CCCCCCCCCCCCCCCCC)C(=O)/C=C\C(=O)N[C@@H](CCCNC(=N)N)C(=O)N[C@@H](CCCNC(=N)N)C(N)=O.O=C(O)C(F)(F)F.O=C(O)C(F)(F)F [Compound A2-Sp4-S] | + (percentages of transfection between 5-25%) |
| CCCCCCCCCCCCCCCCCCCC(=O)NCCN(CCNC(=O)CCCCCCCCCCCCCCCCCCC)C(=O)/C=C\C(=O)N[C@@H](CCCNC(=N)N)C(N)=O.O=C(O)C(F)(F)F [Compound A1-Sp2-A] | + (percentages of transfection between 5-25%) |
| CCCCCCCC/C=C\CCCCCCCC(=O)NCCN(CCNC(=O)CCCCCCC/C=C\CCCCCCCC)C(=O)/C=C\C(=O)N[C@@H](CCCNC(=N)N)C(=O)N[C@@H](CCCNC(=N)N)C(=O)N[C@@H](CCCNC(=N)N)C(N)=O.O=C(O)C(F)(F)F.O=C(O)C(F)(F)F.O=C(O)C(F)(F)F [Compound A3-Sp2-O] | ++ (percentages of transfection between 25-50%) |
| CCCCCCCCCCCCCCCCCCCCCCCC(=O)NCCCN(CCCNC(=O)CCCCCCCCCCCCCCCCCCCCCCC)C(=O)CCC(=O)N[C@@H](CCCNC(=N)N)C(N)=O.O=C(O)C(F)(F)F [Compound A1-Sp3-L] | + (percentages of transfection between 5-25%) |
